Test results from patent US7722906B2, “Polyunsaturated fatty acid fractions of Nigella sativa L. seeds” (priority 2004, dated 2010).

Tested on: writhing induced by parabenzoquinone
Experiment: Analgesic activity, writhing method
Assay type: in vivo, mice
Settings: 5.0 mg/100 g.b.w.
Method: The analgesic activity of the Nigella sativa L. polyunsaturated fatty acid fraction was studied using the writhing method described by Okun et al. (1963). Thirty mature mice of both sexes weighing from 20 to 25 gm were divided into 3 groups of 10 mice each. The first group served as a control and the second group served as a standard (treated with paracetamol in a dose of 5 mg/100 gm body weight). The third group was injected subcutaneously with the Nigella sativa L. polyunsaturated fatty acid fraction. […] […] Animals devoid of writhing in each group were recorded and the analgesic potencies of paracetamol and the Nigella sativa L. polyunsaturated fatty acid fraction were determined as percent protection against writhing.

CC(=O)Nc1ccc(O)cc1 [Paracetamol, paracetamol]
% Protection (30 minutes): 100% | % Protection (60 minutes): 60% | % Protection (90 minutes): 40% | % Protection (120 minutes): 20%
